# According to patent publication US5624903A, “Phosphoinositol-glycan-peptide with insulin-like action” (Heochst Aktiengesellschaft, priority 1991, dated 1997):
# Key:
# rat adipocytes [1] = assay: Lipogenesis in rat adipocytes ([3H]glucose into lipids); format: cell-based; conditions: for Lipogenesis ([3H]lipid): 10 nM
# Description: (§1) Adipose tissue from the epididymis (Wistar rat, 160-180 g, no feed restriction) is digested with collagenase, and the resulting isolated adipocytes are washed several times by flotation.
# (§2) To inactivate the insulin receptor in rat adipocytes, the cells are treated with 10 to 40 μg/ml trypsin. After addition of protease inhibitors, the cells are washed twice by flotation, and incubation is continued at 37° C. for 15 min. These cells are then used for the test of stimulation of lipogenesis by the phosphoinositol-glycanpeptides.
# (§3) The experimental results obtained in the following experiments with tissue or cells in which the insulin receptor has been inactivated are indicated in parentheses in each case.
# This test determines the conversion, which can be stimulated by insulin, of glucose into toluene-soluble products (triglycerides, phospholipids, fatty acids), which requires glucose transport and triglyceride (glycerol 3-P synthesis, esterification)/phospholipid/fatty acid synthesis including the insulin signal transmission cascade.
# Rat adipocytes are incubated in KRH buffer with D-[3-^3 H]glucose (0.2 mM or 1 mM final concentration) in the presence or absence of insulin and PGP at 37° C. for 90 min. The cells are disrupted by adding a toluene-soluble scintillation cocktail, and the lipids are separated from water-soluble products and the incubation medium. After phase separation, the radioactivity incorporated in lipids is determined by scintillation measurement directly without removing the aqueous phase ([^3 H]lipid [dpm*10^-3 ]).
# rat adipocytes [2] = assay: Protein synthesis in rat adipocytes ([3H]leucine incorporation); format: cell-based; conditions: 10 nM
# Description: as §1, §2, §3
# The stimulation of protein synthesis differs from the metabolic effects of insulin measured in the previous determinations in that it belongs to the long-term actions of insulin (as growth hormone). The assay includes the insulin signal cascade.
# Rat adipocytes are incubated in primary culture in Dulbecco's modified essential medium (DMEM) deplete in leucine with 50 μM L-[^3 H]-leucine in the presence of insulin and PGP at 37° C. for 4 hours. […] The cell-associated radioactivity, determined by scintillation measurement, serves as a measure of the protein synthesis and the amino-acid transport through the plasma membrane ([^3 H]leucine [dpm*10^-4 ]).
# pieces of diaphragm = assay: Glycogenesis in rat diaphragm pieces ([14C]glucose into glycogen); format: cell-based; conditions: 10 nM
# Description: (§4) Small pieces of tissue (5 mm diameter) were punched out of hemidiaphragms (Wistar rat, 60-70 g, no feed restriction) and washed several times.
# (§5) To inactivate the insulin receptor in rat diaphragm, the pieces of tissue are incubated in KRH buffer (0.1 mM glucose in the presence of 50 μg/ml tetradecanoylphorbol acetate) at 25° C., passing O2 through continuously, for 90 min. The pieces of tissue are subsequently washed twice with KRH buffer and used for the relevant tests.
# as §3
# This test determines the glycogen synthesis which can be stimulated by insulin in myocytes and which embraces glucose transport through the plasma membrane and the conversion of the glucose into glycogen including the functional insulin signal transmission cascade.
# Pieces of diaphragm are incubated with 50 μM D-[U-^14 C] glucose in KRH buffer in the presence or absence of insulin and PGP at 37° C. for 15 min. […] To determine the glycogen formed, the filters are transferred into TCA (5%), washed with ethanol and acetone and dried, and their radio-activity is determined by scintillation measurement ([^14 C]glycogen [dpm*10^-3 ]). […]
# glycogen synthase = assay: Glycogen synthase activity in rat diaphragm pieces; format: cell-based; conditions: 10 nM
# Description: as §4, §5, §3
# The test determines the conversion, which can be stimulated by insulin, of activated glucose (UDP-glucose) into glycogen (glycogen synthase activity) including a functional insulin signal transmission cascade. […]
# Pieces of diaphragm are incubated with D-glucose (0.1 mM) in the presence or absence of insulin and PGP at 37° C. for 30 min. […] The glycogen synthase activity is calculated as the fractional ratio between the I form of the enzyme (independent of glucose 6-phosphate, dephosphorylated, corresponds to the amount of active enzyme in the homogenate) and the D form of the enzyme (dependent on glucose 6-phosphate, phosphorylated, corresponds to the total amount of activatable enzyme in the homogenate) ([^14 C]glycogen [dpm*10^-3 ]).
# [3] = tested on: plasma membrane vesicles from rat adipocytes; assay: Intrinsic glucose transport activity in isolated plasma membrane vesicles; format: biochemical; conditions: 10 nM
# Description: as §1, §2
# The experimental results obtained in the following experiments with tissue or cells in which the insulin receptor has been inactivated are indicated in parentheses in each case. […]
# Isolated plasma membrane vesicles are incubated in the presence or absence of insulin/PGP at 25° C. for 30 min. The vesicles are subsequently incubated with 50 μM D-[3-^3 H]-glucose and L-[1-^14 C]glucose of the same specific radioactivity at 25° C. for 90 sec. […] Their radioactivity is determined by liquid scintillation measurement. The specific transport (D-[^3 H]glucose/-L-^14 C]glucose [dpm*10^-3 ]) is calculated as the difference between the [^3 H] radioactivity and [^14 C] radioactivity.
# [4] = insulin receptor inactivated (value in parentheses)
substance,measurement,setting,value
Insulin: insulin stands for human insulin,Lipogenesis ([3H]lipid),rat adipocytes [1]; rat adipocytes,11.2 dpm*10^-3
same,Lipogenesis ([3H]lipid),"rat adipocytes [1]; trypsin-treated adipocytes, insulin receptor inactivated (value in parentheses)",1.9 dpm*10^-3
same,Lipogenesis which can be stimulated by insulin (in words),"rat adipocytes [1]; control incubation, adipocytes treated with 10 to 40 μg/ml trypsin",only very little lipogenesis which can be stimulated by insulin
same,Protein synthesis ([3H]leucine),rat adipocytes [2]; [4],4.0 dpm*10^-4
same,Protein synthesis ([3H]leucine),"rat adipocytes [2]; rat adipocytes, 4 hours",10.1 dpm*10^-4
same,Glycogenesis ([14C]glycogen),pieces of diaphragm; rat diaphragm pieces,8.4 dpm*10^-3
same,Glycogenesis ([14C]glycogen),"pieces of diaphragm; rat diaphragm, insulin receptor inactivated (value in parentheses)",4.1 dpm*10^-3
same,Glycogen synthase,glycogen synthase; [4],6.0 dpm*10^-3
same,Glycogen synthase,glycogen synthase; rat diaphragm pieces,10.1 dpm*10^-3
same,Intrinsic glucose transport (specific transport D-[3H]glucose/L-[14C]glucose),[3]; [4],2.3 dpm*10^-3
same,Intrinsic glucose transport (specific transport D-[3H]glucose/L-[14C]glucose),[3]; plasma membrane vesicles,2.5 dpm*10^-3
